# Article PMC8187479, “Sugar phosphate activation of the stress sensor eIF2B” (Nature Communications, 2021)
# Molecular target: T1, eIF2Bα (Homo sapiens, UniProt Q14232)
# T1 construct: made in house; host or cells: E. coli BL21(DE3)
# T1 sequence (Q14232 1-305): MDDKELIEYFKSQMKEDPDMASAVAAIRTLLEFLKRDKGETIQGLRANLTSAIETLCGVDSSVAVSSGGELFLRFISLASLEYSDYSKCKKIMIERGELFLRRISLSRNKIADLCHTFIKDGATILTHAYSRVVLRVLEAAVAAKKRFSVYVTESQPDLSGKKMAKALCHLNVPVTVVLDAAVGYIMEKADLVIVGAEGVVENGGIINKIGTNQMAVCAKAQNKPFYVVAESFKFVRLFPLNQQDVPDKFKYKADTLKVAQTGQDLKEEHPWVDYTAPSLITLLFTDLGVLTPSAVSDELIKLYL
# Test: MIDAS (mass spectrometry integrated with equilibrium dialysis) metabolite binding screen
# Details: MIDAS metabolite binding screen with eIF2Bα; sheet "eIF2Ba"
# In short: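 Hits called at Storey q < 0.1 on z-scores of PCA-corrected log2 fold change between protein and metabolite chambers, quantified by FIA-MS in triplicate.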
row,Compound,log2(corrected fold change)
1,OC[C@H]1O[C@H](O[C@H]2[C@H](O)[C@@H](O)[C@H](O)O[C@@H]2CO)[C@H](O)[C@@H](O)[C@@H]1O [D-Maltose],-0.003614
2,CCCCCC(=O)NCC(=O)O [N-Hexanoyl-glycine],-0.05912
3,NC(=O)c1ccc[n+]([C@@H]2O[C@H](COP(=O)([O-])OP(=O)(O)OC[C@H]3O[C@@H](n4cnc5c(N)ncnc54)[C@H](O)[C@@H]3O)[C@@H](O)[C@H]2O)c1 [Nicotinamide adenine dinucleotide],-0.063
4,NC(CCS)C(=O)O (racemic) [DL-Homocysteine],-0.005857
5,O=C(O)CC(O)(CC(=O)O)C(=O)O [Citric acid],-0.01609
6,C[C@H](N)C(=O)O [L-Alanine],0.0004222
7,COc1cc(CC(=O)O)ccc1O [Homovanillic acid],-0.006498
8,NCCO [Ethanolamine],0.0208
9,Nc1ncnc2c1ncn2[C@H]1C[C@H](O)[C@@H](COP(=O)(O)O)O1 [Deoxyadenosine monophosphate],-0.0746
10,Cn1cncc1C[C@H](NC(=O)CCN)C(=O)O [Anserine],-0.02715
11,NCCc1ccccc1 [Phenethylamine],-0.07261
12,Nc1ncnc2c1ncn2C1CC(O)C(CO)O1 (stereo not shown) [2-Deoxyadenosine],0.4061
13,NCCOP(=O)(O)OP(=O)(O)OC[C@H]1O[C@@H](n2ccc(N)nc2=O)[C@H](O)[C@@H]1O [CDP-ethanolamine],-0.00979
14,Cn1cnc(CCN)c1 [1-Methylhistamine],-0.03686
15,O=C(O)CC[C@@H](O)C(=O)O [D-alpha-Hydroxyglutaric acid],-0.0058
16,CN(CC(=O)O)C(=N)NP(=O)(O)O [Phosphocreatine],-0.03403
17,CC(=O)N[C@H]1[C@H]([C@H](O)[C@H](O)CO)OC(O)(C(=O)O)C[C@@H]1O (stereo partly shown) [N-Acetylneuraminic acid],-0.0313

row,Compound,log2(corrected fold change)
1,O=C(O)CNC(=O)c1ccccc1 [Hippuric acid],0.07626
2,OC[C@H]1O[C@@H](O[C@H]2[C@H](O)[C@@H](O)[C@H](O)O[C@@H]2CO)[C@H](O)[C@@H](O)[C@@H]1O [D-Cellobiose],-0.03103
3,CC(O)(CC(=O)O)C(=O)O (stereo not shown) [Citramalate],-0.0058
4,CC(C)C(=O)C(=O)O [3-methyl-2-oxobutyrate],-0.0499
5,C[C@H](O)[C@@H](O)[C@@H](O)[C@H](O)C=O [L-Fucose],-0.06063
6,Nc1ccn([C@@H]2O[C@H](COP(=O)(O)OP(=O)(O)O)[C@@H](O)[C@H]2O)c(=O)n1 [Cytidine 5-diphosphate],0.02612
7,C[C@@H](O)C(=O)SC[C@H](NC(=O)CC[C@H](N)C(=O)O)C(=O)NCC(=O)O [S-Lactoylglutathione],-0.04124
8,Cc1ncc(C[n+]2csc(CCO[P@](=O)(O)OP(=O)(O)O)c2C)c(N)n1 [Thiamine pyrophosphate],-0.008195
9,C[N+](C)(C)CCOP(=O)([O-])OC[C@H](O)CO [Choline glycerophosphate],-0.09086
10,CC(=CC(=O)O)CC(=O)O [3-Methylglutaconic acid],-0.01192
11,NC(CP(=O)(O)O)C(=O)O (racemic) [DL-2-Amino-3-phosphonopropionic acid],-0.05707
12,CC(=O)N[C@H]1C(O)O[C@H](CO)[C@@H](O)[C@@H]1O[C@H](C)C(=O)O (stereo partly shown) [N-Acetylmuramic acid],0.002532
13,O=P(O)(O)OCC1OC(OP(=O)(O)OP(=O)(O)O)C(O)C1O [5-Phospho-D-ribose 1-diphosphate],0.1645
14,O=C(O)CCCCCCCCCCC(=O)O [Dodecanedioic acid],0.00577
15,Nc1nc2c(ncn2[C@H]2C[C@H](O)[C@@H](COP(=O)(O)OP(=O)(O)OP(=O)(O)O)O2)c(=O)[nH]1 [2-Deoxyguanosine 5-triphosphate],0.05437
16,NCCC(=O)N[C@@H](Cc1cnc[nH]1)C(=O)O [L-Carnosine],-0.01554

# Same assay, conditions: MIDAS screen, sheet eIF2Ba; metabolites screened in pools 1-4; p-value and q-value given
row,Compound,log2(corrected fold change)
1,CC(C)(COP(=O)(O)OP(=O)(O)OC[C@H]1O[C@@H](n2cnc3c(N)ncnc32)[C@H](O)[C@@H]1OP(=O)(O)O)[C@H](O)C(=O)NCCC(=O)NCCSC(=O)CCC(=O)O [Succinyl coenzyme A],0.1384
2,Phosphatidylglycerol,0.1451
3,NCCCCN=C(N)N [Agmatine],0.1363
4,CNCC(=O)O [Sarcosine],-0.1398
5,NC(=O)C1=CN([C@@H]2O[C@H](COP(=O)(O)OP(=O)(O)OC[C@H]3O[C@@H](n4cnc5c(N)ncnc54)[C@H](OP(=O)(O)O)[C@@H]3O)[C@@H](O)[C@H]2O)C=CC1 [NADPH],-0.8133
6,Nc1nc2c(ncn2[C@@H]2O[C@H](COP(=O)(O)OP(=O)(O)OP(=O)(O)O)[C@@H](O)[C@H]2O)c(=O)[nH]1 [Guanosine 5-triphosphate],0.3966
7,N[C@@H](CCC(=O)N[C@@H](CS)C(=O)O)C(=O)O [Gamma-Glu-Cys],0.1652
8,Nc1nc2c(ncn2[C@H]2C[C@H](O)[C@@H](CO)O2)c(=O)[nH]1 [2-Deoxyguanosine],-0.1329
9,CSCCC(=O)C(=O)O [4-Methylthio-2-oxobutanoic acid],0.0884
10,O=C(O)C[C@H](Nc1ncnc2c1ncn2[C@@H]1O[C@H](COP(=O)(O)O)[C@@H](O)[C@H]1O)C(=O)O [Adenylosuccinic acid],-0.03472
11,NC(=O)c1ncn([C@@H]2O[C@H](CO)[C@@H](O)[C@H]2O)c1N [AICAR],0.005355
12,N[C@@H](Cc1c[nH]c2ccccc12)C(=O)O [L-Tryptophan],0.08785
13,CC(CNC(N)=O)C(=O)O (racemic) [DL-3-Ureidoisobutyric acid],0.1976
14,OC[C@H]1O[C@H](OC[C@H]2OC(O)[C@H](O)[C@@H](O)[C@@H]2O)[C@H](O)[C@@H](O)[C@@H]1O (stereo partly shown) [Isomaltose],-0.3372
15,CNCC(O)c1ccc(O)c(OC)c1 (stereo not shown) [Metanephrine],-0.1853
16,CC(CN)C(=O)O (stereo not shown) [3-Aminoisobutyric acid],-0.1018
17,O=C(CO)[C@@H](O)[C@H](O)COP(=O)(O)O [D-Xylulose 5-phosphate],0.3189

row,Compound,log2(corrected fold change)
1,Cn1cnc(C[C@H](N)C(=O)O)c1 [1-Methyl-L-histidine],-0.1945
2,"OCC(O)c1ccc(O)c(O)c1 (racemic) [DL-3,4-Dihydroxyphenyl glycol]",-0.07769
3,Benzoate,0.4135
4,CCCCC[C@H](O)/C=C/[C@@H]1[C@H]2C/C(=C/CCCC(=O)O)O[C@H]2C[C@H]1O [Prostaglandin I2],0.05625
5,O=c1[nH]c(=O)c2nc[nH]c2[nH]1 [Xanthine],-0.1163
6,COc1ccc2[nH]cc(CCN)c2c1 [5-Methoxytryptamine],0.274
7,NCCCC[C@H](N)C(=O)O [L-Lysine],-0.06897
8,CC(=O)NCCCCN [N-Acetylputrescine],-0.2203
9,O=C(CO)[C@@H](O)[C@@H](O)CO [L-Ribulose],-0.1354
10,N[C@@H](Cc1c[nH]cn1)C(=O)O [L-Histidine],0.05971
11,O=c1ccn([C@H]2C[C@H](O)[C@@H](COP(=O)(O)OP(=O)(O)OP(=O)(O)O)O2)c(=O)[nH]1 [dUTP],-0.4569
12,Phosphatidylethanolamine,0.09167
13,CC(C)[C@H](N)C(=O)O [L-Valine],-0.07845
14,Nc1nc(=O)c2c([nH]1)NC[C@@H](CNc1ccc(C(=O)N[C@@H](CCC(=O)O)C(=O)O)cc1)N2C=O [Folinic acid],0.129
15,C[N+](C)(C)CC=O [Betaine aldehyde hydrate],-0.08887
16,CC[C@H](N)C(=O)O [L-2-Aminobutyric acid],-0.1029
17,O=P(O)(O)O[C@H]1O[C@H](CO)[C@@H](O)[C@H](O)[C@H]1O [D-Glucose 1-phosphate],-0.1344
